{"source": "patent US20140107170A1", "about": "“COMPOSITION COMPRISING ANGIOTENSIN II RECEPTOR ANTAGONIST AND ANTIOXIDANT FOR MAINTAINING AND/OR IMPROVING SKIN PROPERTIES” (priority 2011, published 2014)", "system": "Dermal fibroblast cells", "assay": "Dermal fibroblast survival under oxidative stress (H2O2), MTS viability test, Example 3", "assay_type": "cell-based", "conditions": "preincubation till the next day, H2O2 (1 mmol) 15 minutes, MTS after 24 hours, valsartan 1.0 μmol, vitamin A 1 μmol, vitamin C 100 μmol, vitamin E 10 μmol", "method": "Dermal fibroblast cells were grown in Advanced MEM supplemented with antibiotics (penicillin-streptomycin), 5% fetal bovine serum and L-glutamine (2 mmol/l) at 37° C. in a CO2 incubator (5% CO2, 95% air, 95% relative humidity. Cells were detached with Tryple™select. For experiments the cells were seeded in 96-well microtitre plates at a density 5×10^3 cells/well (5×10^4 cells/ml). Two hours after seeding, when the cells attached to the surface, the medium was replaced with the medium supplemented with vitamins (ACE), valsartan or their combination. The cells were incubated till the next day and then treated with H2O2 (1 mmol) for 15 minutes. After the treatment with H2O2 the cells were washed three times with PBS and than incubated in medium for 24 hours. Then the MTS viability test was performed.", "data": [{"smiles": "CCCCC(=O)N(Cc1ccc(-c2ccccc2-c2nnn[nH]2)cc1)[C@H](C(=O)O)C(C)C", "note": "[Valsartan, valsartan]", "values": [{"measurement": "% of survival after treatment with H2O2", "value": 79, "unit": "%"}, {"measurement": "% of survival after treatment with H2O2", "setting": "listed as valsartan", "value": 79, "unit": "%"}]}]}
